Reference: patent US11718582B2, “(R)-4-(1-(1-(4-(trifluoromethyl)benzyl)pyrrolidine-2-carboxamide)cyclopropyl)-benzoic acid as EP4 receptor antagonist” (ROTTAPHARM BIOTECH S.R.L., priority 2018, dated 2023)
Counter-ions that a name gives are not always drawn. Like-named read-outs stand apart in the source and are kept apart here.

Assays:
EP4 receptor = biological target: T1, EP4 receptor (Rattus norvegicus, UniProt P43114); assay: Ex-vivo functional test: reversion of PGE2 effect on LPS-induced TNF alpha release in rat whole blood (EP4 receptor occupation); conditions: 30 mg/kg oral; for Effect per se on the release of TNF alpha (in absence of PGE2): LPS only; for Reversion of the effect of PGE2 on LPS-induced TNF alpha release: blood sampled 1 hour after treatment, **p<0.01 vs vehicle
T1 construct: by the cells present in the whole blood of the rat and expressing the EP4 receptor; from tissue; host or cells: whole blood of male Wistar rats dosed orally, ex vivo
T1 sequence (P43114 whole entry): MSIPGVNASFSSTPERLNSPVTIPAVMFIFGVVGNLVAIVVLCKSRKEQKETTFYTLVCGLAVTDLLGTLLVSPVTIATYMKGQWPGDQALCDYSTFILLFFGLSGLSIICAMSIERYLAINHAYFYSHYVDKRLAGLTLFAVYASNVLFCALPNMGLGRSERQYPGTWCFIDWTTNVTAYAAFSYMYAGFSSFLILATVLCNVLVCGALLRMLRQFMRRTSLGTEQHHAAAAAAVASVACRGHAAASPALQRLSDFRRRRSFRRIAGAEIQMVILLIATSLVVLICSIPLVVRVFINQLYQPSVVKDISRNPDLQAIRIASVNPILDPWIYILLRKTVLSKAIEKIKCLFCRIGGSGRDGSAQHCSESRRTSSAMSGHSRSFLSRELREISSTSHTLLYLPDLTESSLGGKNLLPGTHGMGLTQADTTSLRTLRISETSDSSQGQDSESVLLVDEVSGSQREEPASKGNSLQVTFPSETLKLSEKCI
Procedure: Ex-Vivo Functional Test: Evaluation in the Rat of EP4 Receptor Occupation by Compound 1 (30 mg/kg) Compared to CR6086 (30 mg/kg)
Method: The release of the cytokine TNF alpha induced by the endotoxin Lipopolysaccharide (from E. coli) and modulated by increasing concentrations of PGE2 was evaluated, by the cells present in the whole blood of the rat and expressing the EP4 receptor. As it is known from the literature, PGE2 modulates this release by inhibiting it, and the compounds tested, selective for the EP4 receptor, if present in the blood following their uptake, will be bound to the receptor, preventing PGE2 from inhibiting cytokine release. This reversal effect of the modulation of TNF alpha release can be considered a biomarker of the antagonism towards the EP4 receptor.
Male Wistar rats (Charles River, Italy) weighing 250-275 g were used, orally treated with a vehicle or Compound 1 (30 mg/kg) or CR6086 (30 mg/kg). Each treatment group consisted of 6 animals.
Measurement of the Ex-Vivo Effects in Whole Blood of the Rat:
The effects of the receptor occupancy by the compounds under examination was evaluated one hour after their administration, and compared to those measured in the presence of the vehicle alone. After gaseous anaesthesia with isofluorane, blood was taken from the abdominal aorta and transferred to tubes containing heparin (0.1-0.2 U/ml). Then 0.4 ml blood aliquots were taken and dispensed into a series of test tubes which were pre-heated at 37° C. for 10 minutes. LPS (0.1 μg/ml final concentration) were added to the samples, which represented the test control, or an LPS mix (0.1 μg/ml final concentration)+PGE2 at various concentrations. In the samples representing the basal release of cytokine, LPS was replaced by sterile phosphate buffer (PBS). The samples were incubated for 4 hours at 37° C., then 40 μl of 10 mM EDTA were added and the samples were transferred into ice. The samples were then centrifuged at 1500×g for 10 minutes at 4° C. and the plasma thus obtained was removed and stored at −80° C. until the time of the dosing. The content of TNF alpha in the plasma was measured by means of a specific commercial kit.
The final concentrations of TNF alpha were calculated for each animal treated and for each experimental condition, from which the percentage of inhibition due to increasing concentrations of PGE2 were obtained, compared to the sample containing only LPS. The cytokine release baseline values resulted to be below the ELISA assay sensitivity limit, indicated by the manufacturer. Therefore, the IC50 value was calculated from this inhibition curve. […] The mean TNF alpha values of the samples in presence of only LPS, in the different treatment groups were analysed to verify the possible intrinsic effect of the compound under examination. […]

human EP4 receptor [1] = biological target: T2, human EP4 receptor (Homo sapiens, UniProt P35408); assay: [3H]-PGE2 binding to recombinant human EP4 receptor (HEK293 membranes); design: expressed in transfected cells; conditions: for IC50: recombinant human EP4 receptor, HEK293 membranes, radioligand 1 nM, 90 min 25° C., read-out: [3H]-PGE2 binding IC50 (nM ± SD)
T2 sequence (P35408 whole entry): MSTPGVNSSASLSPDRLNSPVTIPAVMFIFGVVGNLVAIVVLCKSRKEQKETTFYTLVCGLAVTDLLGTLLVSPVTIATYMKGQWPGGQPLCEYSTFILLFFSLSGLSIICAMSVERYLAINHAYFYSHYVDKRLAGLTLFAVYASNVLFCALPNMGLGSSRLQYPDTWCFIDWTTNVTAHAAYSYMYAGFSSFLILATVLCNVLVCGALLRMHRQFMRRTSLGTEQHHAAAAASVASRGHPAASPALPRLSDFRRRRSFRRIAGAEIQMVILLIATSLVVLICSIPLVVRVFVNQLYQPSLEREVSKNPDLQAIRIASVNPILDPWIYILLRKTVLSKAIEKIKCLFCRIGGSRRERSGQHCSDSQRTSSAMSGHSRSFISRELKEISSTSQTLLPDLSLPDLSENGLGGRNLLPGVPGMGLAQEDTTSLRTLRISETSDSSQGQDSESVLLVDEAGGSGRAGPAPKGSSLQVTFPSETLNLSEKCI
Procedure: Studies of Binding Towards the Human EP4 Receptor.
The experiments were performed in accordance with the procedure described by Abramovitz et al (Biochemica and Biophysica Acta; 1483, 285-293, 2000).
The cell membranes bearing the human EP4 receptor, stably expressed by HEK293 cells (Human Embryonic Kidney 293) were prepared as described below. After eliminating the culture medium (DMEM, supplemented with Glutamax I and containing 10% of foetal bovine serum and blasticidin 10 μg/ml) a wash of the cell monolayer was performed with 10 ml of hypotonic lysis buffer (TRIS-CI 5 mM+EDTA 5 mM-pH 7.4). The cells, which grew in adherence in the above mentioned medium at 37° C. with 5% CO2, were then detached from the growth container (150 cm^2 flask) and lysed by mechanical action, adding 20 ml of fresh lysis buffer. The lysates were stirred for 30 seconds and centrifuged at 40000×g for 22 minutes at 4° C. The final pellet was stored at −80° C. until use. At the time of the binding experiment, the membranes were thawed and re-suspended in analysis buffer (10 mM MES-KOH pH6, containing 10 mM MgCl2 and 1 mM CaCl2)) to obtain a concentration of 1 mg of proteins/ml. The protein content of the membrane suspension was determined using bovine serum albumin as a standard.
In the experiments, 10 μl aliquots of membranes were incubated with the radioligand [^3H]-Prostaglandin E2 (PGE2) at the concentration of 1 nM, in absence or in presence of various concentrations of the compounds to be tested. The non-specific binding was determined in the presence of PGE2 1 μM. The incubation, in a final volume of 0.1 ml, performed in 96 deepwell microplates, proceeded for 90 minutes at 25° C. The separation of the free radioligand from that bound to the receptor occurred by rapid filtration under vacuum, using Unifilter GFB glass fibre filtering microplates, pre-wetted with 0.3% of polyethylene-imine dissolved in the analysis buffer, followed by 3 washes with cold buffer (50 mM HEPES, NaCl 500 mM, BSA 0.1%, pH 7.4). The filtration discs were then dried at 30° C., to which 0.05 ml of Microscint-20 scintillation liquid (Perkin Elmer) was added to each and at the end the radioactivity present was measured after at least one hour of stabilization. The compound/radioligand competition curves were analysed using the “Non linear curve fitting” program (Graph Pad, version 7 for Windows), which allowed calculating the IC50 value (concentration capable of inhibiting the 50% of the radioligand binding to the receptor under examination) for each compound evaluated.

human EP4 receptor [2] = biological target: T2, human EP4 receptor; assay: Determination of cAMP in CHO cells transfected with human EP4 receptor (functional test); assay type: cell-based; design: expressed in transfected cells; host or cells: CHO cells; conditions: for Agonist effect (inactive up to): cAMP production in absence of PGE2, vs 1 μM PGE2 control; for Kb: cAMP, CHO-hEP4, 30 nM PGE2, modified Cheng Prusoff; for IC50: inhibition of cAMP response to 30 nM PGE2, read-out: Antagonist effect: IC50
Procedure: Determination of cAMP in CHO Cells Transfected with Human EP4 Receptor (Functional Test)
Method: Evaluation of the agonist and antagonist activity of Compound 1 in the human EP4 receptor expressed in CHO cells transfected with the human EP4 receptor, determined by measuring its effects on cAMP production in the absence and in the presence of the endogenous agonist PGE2.
The CHO cells were suspended in HBSS buffer (Invitrogen) with the addition of HEPES 20 mM (pH 7.4) and IBMX […], then distributed in microplates at a density of 20000 cells per well and incubated for 10 minutes at room temperature in the absence (control) or in presence of the compound under examination. As a reference control of the agonist activity, 1 μM of PGE2 was added to independent dosage wells. In the case of the evaluation of the antagonistic effect, the reference agonist PGE2 was instead added to a final concentration of 30 nM. After 10 minutes of incubation at room temperature, the cells were lysed and the fluorescence acceptor (cAMP labelled D2) and the fluorescence donor (anti-cAMP antibody labelled with europium cryptate) were added. After 60 minutes at room temperature, the fluorescence transfer was measured at a wavelength of 337 nm in excitation and at 620 and 665 nm in emission using a microplate reader (Envison, Perkin Elmer). The cAMP concentration was determined by dividing the measured signal at 665 nm by that measured at 620 nm (ratio). The results were expressed, in the case of the evaluation of the agonist effect, as a percentage of the control response at 1 μM of PGE2 while, in the case of the evaluation of the antagonist effect, as a percentage of inhibition of the response of the control agonist at 30 nM PGE2. For the determination of the antagonist activity, the apparent dissociation constant (Kb) was calculated by applying the modified Cheng Prusoff equation (Kb=IC50/(1+A/EC50A)); where A=concentration of the reference agonist PGE2, and EC50A=EC50 value of the reference agonist.

[3] = system: collagen-induced arthritis in mice; assay: Collagen arthritis in the mouse (CIA); assay type: in vivo
[4] = Pharmacokinetics in Wistar rats; assay type: in vivo; conditions: for Cmax: rat, plasma, oral
[5] = read-out: Antagonist effect: Kb
[6] = read-out: Kb (apparent dissociation constant), antagonist

Effect per se on the release of TNF alpha (in absence of PGE2) (EP4 receptor)	IC50 (human EP4 receptor [1]) [nM]	Agonist effect (inactive up to) (human EP4 receptor [2])	Kb (human EP4 receptor [2]; [5]) [nM]	Kb (human EP4 receptor [2]; [6]) [nM]	IC50 (human EP4 receptor [2]) [nM]	Oral bioavailability [4]	AUC (0-24 h) ([4]; 5 mg/kg) [ngxh/ml]	Cmax ([4]; 5 mg/kg, converted from 4270 ng/ml, read-out: CMAX as plasma concentration) [µM]	Cmax ([4]; 5 mg/kg, read-out: CMAX) [ng/mL]	times less active than Compound 1 in inhibiting the binding of the PGE2 ligand to the human EP4 receptor (human EP4 receptor [1]; relative to Compound 1)	Compound	Reversion of the effect of PGE2 on LPS-induced TNF alpha release (EP4 receptor)	Progression of collagen-induced arthritis (oedema, clinical and histopathological score) ([3]; 45 and 90 mg/kg oral, 16 days, DBA/1 mice)	Reversion of clinical symptoms (swelling of paws) compared with CR6086 30 mg/kg ([3]; compound 1 at 45 mg/kg vs CR6086 30 mg/kg in a similar study)
no significant effects per se	48 ± 3	> 10^−6 M	7.8	7.8	82						O=C(O)c1ccc(C2(NC(=O)[C@H]3CC4(CCN3Cc3ccc(C(F)(F)F)cc3)CC4)CC2)cc1 [CR6086, 4-(1-(6-(4-(trifluoromethyl)benzyl)-6-azaspiro [2.5]octan-5-carboxamide)cyclopropyl) benzoic acid, reference compound]	statistically significant reversion of the effect of PGE2		
no significant effects per se	45 ± 0.4	> 10^−6 M	15	15	160	excellent oral bioavailability	5460	~9	4270		O=C(O)c1ccc(C2(NC(=O)[C@H]3CCCN3Cc3ccc(C(F)(F)F)cc3)CC2)cc1 [Compound 1]	statistically significant reversion of the effect of PGE2	significantly and in a dose-dependent manner reduced the evolution of the pathology	greater effect on the reversion of clinical symptoms
	2210 ± 940									about 50 times	O=C(O)c1ccc(C2(NC(=O)[C@@H]3CCCN3Cc3ccc(C(F)(F)F)cc3)CC2)cc1 [Compound 2, sodium salt of (S)-4-(1-(1-(4-(trifluoromethyl)benzyl)pyrrolidin-2-carboxamide)cyclopropyl) benzoic acid]			
